Columns and labels:
[1] = tested on: IPNS; details: Huffman et al. J. Med. Chem. 1992; cited from earlier work
[2] = tested on: Escherichia coli ESS (DS10031); experiment: Bioassay development: growth in 2xTY medium with serial dilutions of antibiotic, OD600; type: cell-based; details: 16 hours
Procedure: (§1) The bacterial strains Escherichia coli ESS, Bacillus subtilis ATCC6633 and Micrococcus luteus ATCC9341 were grown overnight in 2×TY-medium at 30° C. and 280 rpm. After 16 hours of growth, the OD^600 was measured. Typically, the OD^600 amounts 5.0, ranging from 2.0 to 8.0.
(§2) A solution of amoxicillin was made at a concentration of 7 mg/ml. Subsequently, serial dilutions were made ranging from 1 mg/l down to 0.001 mg/l. MilliQ water served as a negative control.
(§3) In a 96 wells microplate, 25 μl of the serial dilutions were pipetted in the wells. Each microplate was prepared in duplicate. The overnight bacterial cultures were diluted in fresh 2×TY-medium to a final OD^600 of 0.01. To each well, 150 μl of the diluted bacterial cultures was added. The microplates were covered with a lid, and incubated overnight at 25° C. and the duplicate microplate at 37° C.
(§4) After 16 hours of incubation, the OD^600 was read in a microplate reader. From the results, the concentration of amoxicillin still allowing uninhibited growth of the test microorganisms can be read.
(§5) A solution of ampicillin was made at a concentration of 7 mg/ml. Subsequently, serial dilutions were made ranging from 1 mg/l down to 0.001 mg/l. MilliQ water served as a negative control.
as §3, with “gas permeable adhesive seal,” for “lid,”
(§6) After 16 hours of incubation, the OD^600 was read in a microplate reader. From the results, the concentration of ampicillin still allowing uninhibited growth of the test microorganisms can be read.

[3] = tested on: Micrococcus luteus ATCC9341; experiment: as above; type: cell-based; details: 16 hours
Procedure: as §1, §2, §3, §4, §5
as §3, with “gas permeable adhesive seal,” for “lid,”
as §6

[4] = tested on: Bacillus subtilis ATCC6633; experiment: as above; type: cell-based; details: 16 hours
Procedure: as §1, §2, §3, §4, §5
as §3, with “gas permeable adhesive seal,” for “lid,”
as §6

Q: With `CC(C)[C@@H](NC(=O)[C@H](CS)NC(=O)Cc1ccc(O)cc1)C(=O)O` [p-hydroxyphenylacetyl-L-cysteinyl-D-valine] as the molecule, how does the “Antibiotic activity after treatment of the substrate with IPNS” value [1] read?
A: Its value is “not to result in antibiotic activity”.

Q: Which “Antibiotic activity after treatment of the substrate with IPNS” value [1] does the source give for “m-COOH-DL-phenylglycyl-L-cysteinyl-D-valine” here?
A: Its value is “not to result in antibiotic activity”.

Q: What does the source list for `CC1(C)S[C@@H]2[C@H](NC(=O)[C@H](N)c3ccc(O)cc3)C(=O)N2[C@H]1C(=O)O` [Amoxicillin, amoxicillin]?
A: Concentration of amoxicillin still allowing uninhibited growth in 2xTY medium ([2]; at 25° C.): 0.1 mg/L; Concentration of amoxicillin still allowing uninhibited growth in 2xTY medium ([2]; at 37° C.): 0.1 mg/L; Concentration of amoxicillin still allowing uninhibited growth in 2xTY medium ([3]; at 25° C.): 0.001 mg/L; Concentration of amoxicillin still allowing uninhibited growth in 2xTY medium ([3]; at 37° C.): 0.002 mg/L; Concentration of amoxicillin still allowing uninhibited growth in 2xTY medium ([4]; at 25° C.): 1.0 mg/L; Concentration of amoxicillin still allowing uninhibited growth in 2xTY medium ([4]; at 37° C.): 5 mg/L

Q: Which “Concentration of ampicillin still allowing uninhibited growth in 2xTY medium” value ([2]; at 25° C.) does the source give for `CC1(C)S[C@@H]2[C@H](NC(=O)[C@H](N)c3ccccc3)C(=O)N2[C@H]1C(=O)O` [Ampicillin, ampicillin] here?
A: Its value is 0.05 mg/L.

Q: And the “Concentration of ampicillin still allowing uninhibited growth in 2xTY medium” value ([2]; at 37° C.)?
A: Its value is 0.05 mg/L.

Q: And the “Concentration of ampicillin still allowing uninhibited growth in 2xTY medium” value ([3]; at 25° C.)?
A: Its value is 0.001 mg/L.

Q: And the “Concentration of ampicillin still allowing uninhibited growth in 2xTY medium” value ([3]; at 37° C.)?
A: The value was 0.002 mg/L.

Q: What about the “Concentration of ampicillin still allowing uninhibited growth in 2xTY medium” value ([4]; at 25° C.) of the same molecule?
A: Its value is 0.5 mg/L.

Q: What about the “Concentration of ampicillin still allowing uninhibited growth in 2xTY medium” value ([4]; at 37° C.) of the same molecule?
A: Its value is 2.5 mg/L.
